The record followed here is ChEMBL document CHEMBL3808302, “Novel Inhibitors of Toxin HipA Reduce Multidrug Tolerant Persisters” (ACS Med Chem Lett, 2016).

pEC50, pKd: −log10 of the molar value. Active and inactive are the calls of the source. No cut-off for these calls is given here.

The test system of series [1] is Escherichia coli. The series can be described thus: Cytotoxicity against Escherichia coli K-12 MG1655 cells at 250 uM. The series is classed as organism-based.
The test system of series [2] is T1, Serine/threonine-protein kinase toxin HipA (Escherichia coli (strain K12)), P23874 [D309Q].
T1 sequence (whole entry): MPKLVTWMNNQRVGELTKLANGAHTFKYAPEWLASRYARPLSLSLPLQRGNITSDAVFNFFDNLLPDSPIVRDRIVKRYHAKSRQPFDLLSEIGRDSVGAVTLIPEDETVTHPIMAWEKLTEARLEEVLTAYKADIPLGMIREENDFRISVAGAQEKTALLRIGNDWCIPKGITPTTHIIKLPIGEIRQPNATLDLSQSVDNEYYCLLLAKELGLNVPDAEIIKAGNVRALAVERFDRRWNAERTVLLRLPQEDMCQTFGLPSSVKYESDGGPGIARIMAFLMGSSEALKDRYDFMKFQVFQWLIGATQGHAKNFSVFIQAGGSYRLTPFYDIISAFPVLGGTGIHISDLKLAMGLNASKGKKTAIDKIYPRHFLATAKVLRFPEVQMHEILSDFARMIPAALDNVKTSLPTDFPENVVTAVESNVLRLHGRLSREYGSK
The experiment in a line: Binding affinity to Escherichia coli HipA D309Q mutant expressed in Escherichia coli BL21 (DE3) assessed as fast-on/fast-off type binding at 6.25 to 100 uM by surface plasmon resonance assay. (In general: Surface plasmon resonance follows binding to a sensor surface in real time, without labels.)

Series [3] deals with Escherichia coli K-12. The experiment in a line: (§1) Inhibition of HipA in Escherichia coli K-12 MG1655 assessed as reduction of persister fraction incubated for 8 hrs in presence of ampicillin.
A short description of series [4]: as §1.
Series [5] relates to Escherichia coli K-12. The series can be described thus: (§2) Inhibition of HipA in Escherichia coli K-12 MG1655 assessed as reduction of persister fraction incubated for 8 hrs in presence of kanamycin.
The nature of series [6]: as §2.
Series [7] concerns the target Serine/threonine-protein kinase toxin HipA (Escherichia coli (strain K12), UniProt P23874, D309Q). The experiment in a line: (§3) Binding affinity to Escherichia coli HipA D309Q mutant expressed in Escherichia coli BL21 (DE3) by surface plasmon resonance assay.
Series [8] has as its system T1, Serine/threonine-protein kinase toxin HipA (Escherichia coli (strain K12)), P23874 [D309Q]. The description is as §3.
Series [9] deals with Escherichia coli K-12. The experiment in a line: Inhibition of HipA in Escherichia coli K-12 MG1655 assessed as reduction of persister fraction incubated for 8 hrs in presence of kanamycin relative to control.
Series [10] deals with Escherichia coli K-12. The experiment in a line: Inhibition of HipA in Escherichia coli K-12 MG1655 assessed as reduction of persister fraction at 250 uM incubated for 8 hrs in presence of ampicillin relative to control.
In series [11] the test system is T1, Serine/threonine-protein kinase toxin HipA (Escherichia coli (strain K12)), P23874 [D309Q]. The experiment in a line: Binding affinity to Escherichia coli HipA D309Q mutant expressed in Escherichia coli BL21 (DE3) assessed as slow-on/slow-off type binding at 3.125 to 100 uM by surface plasmon resonance assay.
For series [12] the test system is unchanged. The series can be described thus: Binding affinity to Escherichia coli HipA D309Q mutant expressed in Escherichia coli BL21 (DE3) assessed as slow-on/fast-off type binding at 0.00015 to 8.75 uM by surface plasmon resonance assay.
Series [13] has the same test system. The experiment in a line: Binding affinity to Escherichia coli HipA D309Q mutant expressed in Escherichia coli BL21 (DE3) assessed as slow-on/fast-off type binding at 3.125 to 87.5 uM by surface plasmon resonance assay.
The test system of series [14] is Escherichia coli. The experiment in a line: Antipersistence effect in hipA knockout Escherichia coli assessed as reduction of persister fraction at 200 uM in presence of ampicillin. Type of series: functional, organism-based.

As to `CCN1CCN(CCNC(=O)c2cccc(Nc3cc(-c4ccccc4)ncn3)c2)CC1`, the Activity result in series [1] was “Non-toxic”; in series [8], “Dose-dependent effect”. Moreover, the result in [2] was Active. Further, the inhibition entry in series [3] and in series [5] was “Dose-dependent effect” throughout. The pEC50 is 3.90 in [4] and 3.95 in [6]. The negative-log Kd (pKd) in series [7] is 4.27. Also, the fold change (FC) in [9] and in [10] was 5 throughout.
Regarding `COc1cc(NC(=O)c2cc3nc(-c4ccc(F)cc4)cc(C)n3n2)cc([N+](=O)[O-])c1`, the values for the Activity result in series [1] and in [8] were “Non-toxic” and “Dose-dependent effect”, respectively. Also, the result in [11] was Active. The inhibition entry in [3] and in [5] was “Dose-dependent effect” in each case. Also, the negative-log EC50 (pEC50) in series [4] was 4.08; in series [6] it was 4.00. In addition, in series [7], the pKd was 4.37. In addition, the fold change (FC) in series [9] and in series [10] was 5 each time.
Turning to `CCOC(=O)c1ccc(NC(=O)CSc2nnc(CSc3nc(C)cc(C)n3)o2)cc1`, the result in series [12] and in series [13] was Active. Also, the Activity entry was “Non-toxic” in [1] and “Dose-dependent effect” in series [8]. Besides, the inhibition entry in series [3] and in series [5] was “Dose-dependent effect” throughout. Besides, the negative logarithm of the EC50 (pEC50) in series [4] was 3.94; in [6], 4.37. Moreover, the pKd in [7] is 4.46. For the same compound, the fold change (FC) in series [9] turned out to be 3; in [10], 2.
Regarding `CCc1ccc(C2C(C(=O)c3ccc(OC)cc3)=C(O)C(=O)N2CCc2c[nH]c3ccccc23)cc1` (stereo not drawn), the result in series [12] and in series [13] was Active. Further, the Activity entry was “Non-toxic” in [1] and “Dose-dependent effect” in [8]. For the same compound, the result in series [14] was inactive. Further, the inhibition entry in [3] and in series [5] was “Dose-dependent effect” in each case. Also, the pEC50 in [4] was 4.34; in [6] it was 4.55. In series [7], the pKd is 6.57. Further, the fold change (FC) in [9] was > 1; in [10] it was 5.

By pEC50 is commonly meant −log10 of the EC50, conventionally taken in molar units. The term pKd denotes −log10 of the Kd, conventionally taken in molar units. A high value points to a low Kd.
